Experimental data reported in PubChem BioAssay (NCI).
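Five compound concentrations were applied to cells in 96-well plates for 48 hours; endpoints were derived by simple linear interpolation of the resulting dose-response curve. TGI marks complete inhibition of growth.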

Experiments:
Test in all cases: DTP human tumour cell line panel, 48 h
[1] = tested on: A549 NSCLC
[2] = tested on: EKVX NSCLC
[3] = tested on: HS 578T breast
[4] = tested on: NCI-H23 lung
[5] = tested on: NCI-H522 lung
[6] = tested on: SF-268 CNS
[7] = tested on: SW-620 colon
[8] = tested on: T-47D breast
[9] = tested on: TK-10 renal
[10] = tested on: UO-31 renal

c1ccc2c(c1)cc1n2CCc2c-1[nH]c1ccccc21 showed a TGI [1] greater than 10 µM, a TGI [2] greater than 10 µM and a TGI [3] greater than 10 µM. It also gave a TGI [4] greater than 10 µM, a TGI [5] greater than 10 µM and a TGI [6] greater than 10 µM. The TGI [7] was greater than 10 µM, the TGI [8] was greater than 10 µM and the TGI [9] was greater than 10 µM. The TGI [10] was greater than 10 µM.

COc1cc(OC)c2c(c1)OC(c1cccnc1)C(c1ccccc1)C2=O (stereo not given) was tested, and the TGI [1] was greater than 100 µM, the TGI [2] was greater than 100 µM and the TGI [3] was greater than 100 µM. It also gave a TGI [4] greater than 100 µM, a TGI [5] greater than 100 µM and a TGI [6] greater than 100 µM. It also gave a TGI [7] greater than 100 µM, a TGI [8] greater than 100 µM and a TGI [9] greater than 100 µM. It also gave a TGI [10] greater than 100 µM.

O=C(NO)NCCCl was tested, and the TGI [1] was greater than 100 µM, the TGI [2] was greater than 100 µM and the TGI [3] was greater than 100 µM. The TGI [4] was greater than 100 µM, the TGI [5] was greater than 100 µM and the TGI [6] was greater than 100 µM. The TGI [7] was greater than 100 µM, the TGI [8] was greater than 100 µM and the TGI [9] was greater than 100 µM. For the same compound, the TGI [10] was greater than 100 µM.

Work on CCOC(=O)C1(C#N)CC1 yielded a TGI [1] greater than 100 µM, a TGI [2] greater than 100 µM and a TGI [3] greater than 100 µM. The TGI [4] was greater than 100 µM, the TGI [5] was greater than 100 µM and the TGI [6] was greater than 100 µM. For the same compound, the TGI [7] was greater than 100 µM, the TGI [8] was greater than 100 µM and the TGI [9] was greater than 100 µM. The TGI [10] was greater than 100 µM.

For CC(C)(C)N/N=C(\C(=O)NC1=C(Cl)C(=O)c2ccccc2C1=O)C1C=CCS1(=O)=O (stereo not given), the TGI [1] was 38.5 µM, the TGI [2] was 30.2 µM and the TGI [3] was 64.8 µM. The TGI [4] was 24.2 µM, the TGI [5] was 25.5 µM and the TGI [6] was greater than 100 µM. It also gave a TGI [7] greater than 100 µM, a TGI [8] of 37.8 µM and a TGI [9] greater than 100 µM. For the same compound, the TGI [10] was 37.7 µM.

COc1cc2c(/C=C3/C(=O)N(C)c4ccc(O)cc43)c(Cl)[nH]c2cc1C showed a TGI [1] of 16.9 µM, a TGI [2] of 23.9 µM and a TGI [3] of 28.9 µM. The TGI [4] was 3.28 µM, the TGI [5] was 16.6 µM and the TGI [6] was 25.3 µM. For the same compound, the TGI [7] was 21.3 µM, the TGI [8] was 5.93 µM and the TGI [9] was 20.7 µM. For the same compound, the TGI [10] was 24.5 µM.

CC(=O)OCC1OC(n2c(Br)nc3c2c(=O)n(C)c(=O)n3C)C(OC(C)=O)C1OC(C)=O (stereo not given) was tested, and the TGI [1] was greater than 100 µM, the TGI [2] was greater than 100 µM and the TGI [3] was greater than 100 µM. It also gave a TGI [4] greater than 100 µM, a TGI [5] greater than 100 µM and a TGI [6] greater than 100 µM. The TGI [7] was greater than 100 µM, the TGI [8] was greater than 100 µM and the TGI [9] was greater than 100 µM. The TGI [10] was greater than 100 µM.

Compound Brc1cccc(C2ON=C(c3ccccc3)N2C23CC4CC(CC(C4)C2)C3)c1 (stereo not given) has a TGI [1] greater than 10 µM, a TGI [2] greater than 10 µM and a TGI [3] greater than 10 µM. The TGI [4] was greater than 10 µM, the TGI [5] was greater than 10 µM and the TGI [6] was greater than 10 µM. For the same compound, the TGI [7] was greater than 10 µM, the TGI [8] was greater than 10 µM and the TGI [9] was greater than 10 µM. It also gave a TGI [10] greater than 10 µM.

Work on Br[C@@H]1[C@H]2c3nc4ccccc4nc3[C@@H]1C[C@H]2Br yielded a TGI [1] greater than 100 µM, a TGI [2] greater than 100 µM and a TGI [3] greater than 100 µM. The TGI [4] was greater than 100 µM, the TGI [5] was greater than 100 µM and the TGI [6] was greater than 100 µM. For the same compound, the TGI [7] was greater than 100 µM, the TGI [8] was greater than 100 µM and the TGI [9] was greater than 100 µM. It also gave a TGI [10] greater than 100 µM.

With CC1=C(C)CC2(C=C(C(C)(C)C)C(=O)C(C(C)(C)C)=C2)SC1 the TGI [1] was 65.3 µM, the TGI [2] was 36.9 µM and the TGI [3] was 36.8 µM. For the same compound, the TGI [4] was 57.1 µM, the TGI [5] was 16.5 µM and the TGI [6] was 46.6 µM. The TGI [7] was 41.1 µM, the TGI [8] was 87.3 µM and the TGI [9] was 37.9 µM. For the same compound, the TGI [10] was 29.7 µM.
